Test results reported in patent EP0087751B1, “Water-soluble peptides from very poorly soluble amino acids” (PFRIMMER KABI GMBH & CO. KG, priority 1982, dated 1985).
Converted amounts (≈) assume the structure as drawn. Where a SMILES comes first, the peptide text is derived from it.

Key:
[1] = Solubility in water
[2] = Solubility in water; type: physicochemical; details: for Löslichkeit: in water

N[C@@H](CSSC[C@H](N)C(=O)O)C(=O)O [Cystin]
solubility [1]: 0.09 mg/mL (≈ 0.375 mM)

N[C@@H](Cc1ccc(O)cc1)C(=O)NCCCC[C@H](NC(=O)[C@@H](N)Cc1ccc(O)cc1)C(=O)O [N^2-Tyrosinyl-N^6-tyrosinyl-lysin, N^2-Tyrosinyl-N^6-L-tyrosinyl-L-lysin] (H-Tyr-Lys(Tyr)-OH)
Löslichkeit ([2]; temperature not stated): 622 g/L H20
Faktor besser löslich in Wasser als das freie Tyrosin ([2]; ratio of water solubility of the tripeptide to that of free Tyrosin): 1,62 . 10^3

N^2-Cystinyl-N^6-L-cystinyl-L-lysin [N^2,N^6-Di-L-cystinyl, L-lysin]
Löslichkeit ([2]; 20°C): 125 g/L H20

NCCCC[C@H](N)C(=O)O [Lysin]
solubility [1]: 666 mg/mL (≈ 4560 mM)
